From patent publication US20170087158A1, “JANUS KINASE INHIBITORS FOR TREATMENT OF DRY EYE AND OTHER EYE RELATED DISEASES” (Incyte Corporation, priority 2008, published 2017)

Tests used:
[1] = test system: NOD mouse model of autoimmune type 1 diabetes; settings: Cetkovic-Cvrlje et al. 2003; cited from earlier work
[2] = test system: myeloid dendritic cells (DCs); settings: CD40-induced maturation of myeloid DCs; Saemann et al. 2003; cited from earlier work

Procedure for JAK: Compounds herein are tested for inhibitory activity of JAK targets according to the following in vitro assay described in Park et al., Analytical Biochemistry 1999, 269, 94-104. The catalytic domains of human JAK1 (a.a. 837-1142), Jak2 (a.a. 828-1132) and Jak3 (a.a. 781-1124) with an N-terminal His tag are expressed using baculovirus in insect cells and purified. The catalytic activity of JAK1, JAK2 or JAK3 is assayed by measuring the phosphorylation of a biotinylated peptide. The phosphorylated peptide is detected by homogenous time resolved fluorescence (HTRF). IC50s of compounds is measured for each kinase in the reactions that contain the enzyme, ATP and 500 nM peptide in 50 mM Tris (pH 7.8) buffer with 100 mM NaCl, 5 mM DTT, and 0.1 mg/mL (0.01%) BSA. The ATP concentration in the reactions is 90 μM for Jak1, 30 μM for Jak2 and 3 μM for Jak3. Reactions are carried out at room temperature for 1 hr and then stopped with 20 μL 45 mM EDTA, 300 nM SA-APC, 6 nM Eu-Py20 in assay buffer (Perkin Elmer, Boston, Mass.). Binding to the Europium labeled antibody takes place for 40 minutes and HTRF signal is measured on a Fusion plate reader (Perkin Elmer, Boston, Mass.).

## N#CC[C@H](C1CCCC1)n1cc(-c2ncnc3[nH]ccc23)cn1 (mixture of isomers) [Example 67, (3R)- and (3S)-3-Cyclopentyl-3-[4-(7H-pyrrolo[2,3-d]pyrimidin-4-yl)-1H-pyrazol-1-yl]propanenitrile]
JAK; qualitative, b1163: IC50 of 10 μM or less for any JAK target (JAK1, JAK2, JAK3) is considered active
  JAK inhibitor activity: active JAK inhibitors

## N#CCC(C1CCCC1)n1cc(-c2ncnc3[nH]ccc23)cn1 (single isomer, unassigned; peak 3) [Example 67 second peak, 3-Cyclopentyl-3-[4-(7H-pyrrolo[2,3-d]pyrimidin-4-yl)-1H-pyrazol-1-yl]propanenitrile]
JAK; final products from the enantiomers separated by preparative-HPLC (OD-H)
  JAK inhibitor activity relative to its enantiomer: more active than its enantiomer

## COc1cc2ncnc(Nc3ccc(O)cc3)c2cc1OC [JANEX-1]
[1]
  immunomodulatory activity: potent immunomodulatory activity
  onset of diabetes: delayed the onset of diabetes

## COc1cc2ncnc(Nc3ccc(O)c(Br)c3)c2cc1OC [WHI-P-154]
[2]
  effect on CD40-induced JAK3 activity, costimulatory molecule expression, IL-12 production and allogeneic stimulatory capacity: prevented these effects
